Laboratory results reported in patent US20170189363A1, “GASTRIC ACID MODULATORS FOR ORAL DELIVERY OF PEPTIDES AND PROTEINS” (NOVEN PHARMACEUTICALS, INC., priority 2015, published 2017).

Key:
Assay type in all cases: in vivo
[1] = Blood glucose after oral capsules of insulin/SNAC/ranitidine hydrochloride; details: rats
Protocol: Rats were orally administered capsules comprising 0.3 mg insulin/10 mg SNAC/10 mg ranitidine hydrochloride, and blood glucose levels were measured at periodic intervals. Results are shown in FIG. 2A (each line represents one treated animal). For comparison, rats were orally administered capsules comprising 0.3 mg insulin/10 mg SNAC (i.e., without ranitidine hydrochloride), and blood glucose levels were assessed. Results are shown in FIG. 2B (each line represents one treated animal).

[2] = Blood glucose after capsule-in-capsule insulin/SNAC with ranitidine hydrochloride; details: dogs
Protocol: In particular, a size 0 capsule containing insulin and SNAC was placed inside an empty size 00 capsule, which was placed inside a size 000 capsule, optionally containing ranitidine hydrochloride. The capsules were administered to dogs and blood glucose levels were assessed. Results are shown in FIG. 3 (♦—with ranitidine hydrochloride; ▪—without ranitidine hydrochloride).

[3] = Blood glucose after intravenous ranitidine hydrochloride plus oral insulin/SNAC capsules; details: rats
Protocol: Rats were administered ranitidine hydrochloride (10 mg/kg) intravenously one hour prior to oral dosing with capsules comprising 0.3 mg insulin/20 mg SNAC. In vivo delivery of insulin was measured indirectly by assessing blood glucose levels at periodic intervals using a glucometer. Results are shown in FIG. 1A (each line represents one treated animal). For comparison, rats were orally administered capsules comprising 0.3 mg insulin/20 mg SNAC without administration of ranitidine hydrochloride, and blood glucose levels were assessed. Results are shown in FIG. 1B (each line represents one treated animal).

## insulin
[1]; oral capsules 0.3 mg insulin/10 mg SNAC/10 mg ranitidine hydrochloride compared with 0.3 mg insulin/10 mg SNAC, FIG. 2A vs 2B
  blood glucose levels: lower
[1]; oral capsules with 10 mg ranitidine hydrochloride vs without, inferred from blood glucose
  bioavailability of insulin: greater
[2]; capsule-in-capsule 3.6 mg insulin and 500 mg SNAC inner, 150 mg ranitidine hydrochloride outer, compared with no ranitidine hydrochloride, FIG. 3
  blood glucose levels: lower
[2]; capsule-in-capsule with 150 mg ranitidine hydrochloride vs without, inferred from blood glucose
  bioavailability of insulin: greater
[3]; oral capsules 0.3 mg insulin/20 mg SNAC with i.v. ranitidine hydrochloride vs without, inferred from blood glucose
  bioavailability of insulin: greater
[3]; oral capsules 0.3 mg insulin/20 mg SNAC, ranitidine hydrochloride 10 mg/kg intravenously one hour prior, compared with no ranitidine hydrochloride, FIG. 1A vs 1B
  blood glucose levels: lower
